Experimental data as given in article PMC4203401 (Journal of Medicinal Chemistry, 2014).

Tests used:
[1] = molecular target: HIV-1 IN (rIN), strand transfer (Human immunodeficiency virus type 1 group M subtype B, UniProt P04585); assay: HIV-1 IN gel-based assay, strand transfer; type: biochemical; conditions: IC50 for strand transfer
HIV-1(IIIB) = assay: HIV-1 replication inhibition in HeLa-CD4-LTR-β-gal cells; type: cell-based
[2] = molecular target: polymerase function of RT (Human immunodeficiency virus type 1 group M subtype B, UniProt P04585); assay: HIV-1 RT polymerase inhibition; type: biochemical
[3] = molecular target: HIV-1 RT-associated RNase H activity (Human immunodeficiency virus type 1 group M subtype B, UniProt P04585); assay: HIV-1 RT RNase H inhibition; type: biochemical
HTLV-IIIB = conditions: read-out: EC50, originally reported; HTLV-IIIB-based infection assay; ref 19b; cited from earlier work

SMILES | IC50 [1] [µM] | Inhibition of polymerase function of RT (inactive up to) [2] [µM] | Ability to inhibit RNase H [3] | also measured
O=C(O)/C(O)=C/C(=O)c1cn(Cc2ccc(F)cc2)c2cc(N3CCN(CCCCl)CC3)ccc2c1=O [Compound 12i, 4-[1-[(4-Fluorophenyl)methyl]-7-[N-(3-chloroprop-1-yl)piperazin-1-yl]-4-(1H)-quinolinon-3-yl]-2-hydroxy-4-oxo-2-butenoic Acid] | < 0.1 | > 40 |  | Block of HIV-1 replication (HIV-1(IIIB); HeLa-CD4-LTR-β-gal cells, HIV-1(IIIB)): unable to block replication
C[C@@H]1CCO[C@H]2Cn3cc(C(=O)NCc4ccc(F)cc4F)c(=O)c(O)c3C(=O)N12 [Compound 3, dolutegravir] |  |  | inactive | 
Cc1nnc(C(=O)NC(C)(C)c2nc(C(=O)NCc3ccc(F)cc3)c(O)c(=O)n2C)o1 [Compound 2, raltegravir] |  |  | inactive | 
O=C(O)/C(O)=C/C(=O)c1cn(Cc2ccc(F)cc2)c2cc(N3CCCC3)ccc2c1=O [Compound 7b, reference compound] |  | > 40 |  | EC50 (HTLV-IIIB): 0.17 µM
O=C(O)/C(O)=C/C(=O)c1cn(Cc2ccc(F)cc2)c2cc(N3CCOCC3)ccc2c1=O [Compound 12f, 4-[1-[(4-Fluorophenyl)methyl]-7-(morpholin-4-yl)-4-(1H)-quinolinon-3-yl]-2-hydroxy-4-oxo-2-butenoic Acid] | < 0.1 | > 40 |  | 
CCOC(=O)/C(O)=C/C(=O)c1cn(Cc2ccc(F)cc2)c2cc(N(C)C)ccc2c1=O [Compound 11g, 4-[1-[(4-Fluorophenyl)methyl]-7-(dimethylamino)-4-(1H)-quinolinon-3-yl]-2-hydroxy-4-oxo-2-butenoic Acid Ethyl Ester] |  |  |  | SI, selectivity index (CC50/EC50) (HIV-1(IIIB); CC50/EC50 in HeLa cells): 20
